# Experimental data: patent US12528818B2, “Compositions and methods for inhibition of RAS” (Leidos Biomedical Research, Inc., priority 2021, dated 2026)
# pIC50: −log10 of the molar value.
# Tested on: pERK in NCI-H358 cells
# Test: Cell-based pERK HTRF assay (pERK inhibition in H358 cells)
# Details: Homo sapiens, NCI-H358, 0.5 h, pERK inhibition IC50, NCI-H358 cells, 30 min incubation; read-out: PERK in H358 cell
row,SMILES,pIC50
1,C=CC(=O)N1CCC(N(CC)c2nc(OC[C@@]34CCCN3C[C@H](F)C4)nc3c(F)c(-c4ccc(F)c5sc(N)c(C#N)c45)ccc23)[C@H]1COC (stereo partly drawn) [Compound 412],6.00 to 7.00
2,C=CC(=O)N1CCC(N(C)c2nc(OC[C@@]34CCCN3C[C@H](F)C4)nc3c(F)c(-c4ccc(F)c5sc(N)nc45)ccc23)[C@H]1C (stereo partly drawn) [Compound 413],6.00 to 7.00
3,C=CC(=O)N1CC[C@@H](N(CC)c2nc(OC[C@@]34CCCN3C[C@H](F)C4)nc3cc(-c4ccc(F)c5sc(N)c(C#N)c45)c(F)cc23)[C@H]1C [Compound 414],> 7.00
4,"C=CC(=O)N1CCC(N(CC)c2nc(OC[C@@]34CCCN3C[C@H](F)C4)nc3c(C#N)c(-c4ccc(F)c5sc(N)c(C#N)c45)ccc23)[C@H]1C (stereo partly drawn) [Compound 415, 4-((1-acryloyl-2-methylpyrrolidin-3-yl)(ethyl)amino)-7-(2-amino-3-cyano-7-fluorobenzo[b]thiophen-4-yl)-2-(((2R,7aS)-2-fluorotetrahydro-1H-pyrrolizin-7a(5H)-yl)methoxy)quinazoline-8-carbonitrile]",> 7.00
5,C=CC(=O)N1CCC(N(C)c2nc(OC[C@@H]3CCCN3C)nc3c(F)c(-c4ccc(F)c5sc(N)c(C#N)c45)c(Cl)cc23)[C@H]1COC (stereo partly drawn) [Compound 416],> 7.00
6,C=CC(=O)N1CCC(N(C)c2nc(OC[C@@H]3CCCN3C)nc3cc(-c4ccc(F)c5sc(N)c(C#N)c45)c(F)cc23)[C@H]1C (stereo partly drawn) [Compound 417],6.00 to 7.00
7,C=CC(=O)N1CC[C@@H](N(CC)c2nc(OC[C@@]34CCCN3C[C@H](F)C4)nc3c(F)c(-c4ccc(F)c5sc(N)c(C#N)c45)c(Cl)cc23)[C@H]1C [Compound 418],6.00 to 7.00
8,C=CC(=O)N1CCC(N(C)c2nc(OC[C@@H]3CCCN3C)nc3c(F)c(-c4ccc(F)c5sc(N)c(C#N)c45)c(Cl)cc23)[C@H]1C (stereo partly drawn) [Compound 419],> 7.00
9,C=CC(=O)N1CCC(N(C)c2nc(OC[C@@H]3CCCN3C)nc3c(F)c(-c4ccc(F)c5sc(N)c(C#N)c45)ccc23)[C@H]1C (stereo partly drawn) [Compound 420],> 7.00
10,C=CC(=O)N1CCC(N(CC)c2nc(OC[C@@]34CCCN3C[C@H](F)C4)nc3c(F)c(-c4ccc(F)c5sc(N)c(C#N)c45)ccc23)[C@H]1C (stereo partly drawn) [Compound 421],> 7.00
11,C=CC(=O)N1C[C@H](C)N(c2nc(OC[C@@]34CCCN3C[C@H](F)C4)nc3c(Cl)c(-c4ccc(F)c5sc(N)c(C#N)c45)c(C#N)cc23)C[C@H]1C [Compound 422],> 7.00
12,C=CC(=O)N1CCC(N(C)c2nc(OC[C@@H]3C[C@@H](F)CN3C)nc3c(F)c(-c4ccc(F)c5sc(N)c(C#N)c45)ccc23)[C@H]1COC (stereo partly drawn) [Compound 423],> 7.00
13,C=CC(=O)N1CCC(N(C)c2nc(OC[C@@H]3C[C@@H](OC)CN3C)nc3c(F)c(-c4ccc(F)c5sc(N)c(C#N)c45)ccc23)[C@H]1COC (stereo partly drawn) [Compound 424],> 7.00
14,C=CC(=O)N1CCC(N(C)c2nc(OC[C@@]34CCCN3C[C@H](F)C4)nc3c(Cl)c(-c4ccc(F)c5sc(N)c(C#N)c45)c(C#N)cc23)[C@H]1C (stereo partly drawn) [Compound 425],6.00 to 7.00
15,"C=CC(=O)N1CCC(N(C)c2nc(OC[C@@H]3CCCN3C)nc3c(F)c(-c4ccc(F)c5sc(N)c(C#N)c45)c(C(F)(F)F)cc23)C1COC (stereo partly drawn) [Compound 426, 4-(4-((1-acryloyl-2-(methoxymethyl)pyrrolidin-3-yl)(methyl)amino)-8-fluoro-2-(((S)-1-methylpyrrolidin-2-yl)methoxy)-6-(trifluoromethyl)quinazolin-7-yl)-2-amino-7-fluorobenzo[b]thiophene-3-carbonitrile]",> 7.00
16,C=CC(=O)N1CCC(N(CC)c2nc(OC[C@@H]3C[C@@H](OC)CN3C)nc3c(F)c(-c4ccc(F)c5sc(N)c(C#N)c45)c(C(F)(F)F)cc23)[C@H]1COC (stereo partly drawn) [Compound 427],> 7.00
17,C=CC(=O)N1CCC(N(CC)c2nc(OC[C@@]34CCCN3C[C@H](F)C4)nc3c(C#N)c(-c4ccc(F)c5sc(N)c(C#N)c45)ccc23)[C@H]1COC (stereo partly drawn) [Compound 428],6.00 to 7.00
18,C=CC(=O)N1CCC(N(C)c2nc(OC[C@@H]3C[C@@H](F)CN3C)nc3c(F)c(-c4ccc(F)c5sc(N)c(C#N)c45)ccc23)[C@H]1C (stereo partly drawn) [Compound 429],> 7.00
19,C=CC(=O)N1CCC(N(C)c2nc(OC[C@@H]3C[C@@H](OC)CN3C)nc3c(F)c(-c4ccc(F)c5sc(N)c(C#N)c45)ccc23)[C@H]1C (stereo partly drawn) [Compound 430],> 7.00
20,C=CC(=O)N1CCC(N(CC)c2nc(OC[C@@]34CCCN3C[C@H](F)C4)nc3cc(-c4ccc(F)c5sc(N)c(C#N)c45)ccc23)[C@H]1C (stereo partly drawn) [Compound 431],> 7.00
21,C=CC(=O)N1CCC(N(C)c2nc(OC[C@@H]3CCCN3C)nc3c(F)c(-c4ccc(F)c5sc(N)c(C#N)c45)ccc23)[C@H]1COC (stereo partly drawn) [Compound 432],6.00 to 7.00
22,C=CC(=O)N1CCC(N(C)c2nc(OC[C@@H]3CC4(CC4)CN3C)nc3c(F)c(-c4ccc(F)c5sc(N)c(C#N)c45)ccc23)[C@H]1COC (stereo partly drawn) [Compound 433],> 7.00
23,C=CC(=O)N1CCC(N(C)c2nc(OC[C@@H]3CC4(CC4)CN3C)nc3c(F)c(-c4ccc(F)c5sc(N)c(C#N)c45)ccc23)[C@H]1C (stereo partly drawn) [Compound 436],> 7.00
24,C=CC(=O)N1CC[C@@H](N(CC)c2nc(OC[C@@]34CCCN3C[C@H](F)C4)nc3cc(-c4ccc(F)c5sc(N)c(C#N)c45)c(F)cc23)[C@H]1COC [Compound 437],6.00 to 7.00

row,SMILES,pIC50
1,C=CC(=O)N1CCC(N(CC)c2nc(OC[C@@H]3CCCN3C)nc3c(F)c(-c4ccc(F)c5sc(N)c(C#N)c45)c(C(F)(F)F)cc23)[C@H]1COC (stereo partly drawn) [Compound 438],> 7.00
2,C=CC(=O)N1CC[C@@H](N(CC)c2nc(OC[C@@]34CCCN3C[C@H](F)C4)nc3cc(-c4ccc(F)c5sc(N)c(C#N)c45)c(C#N)cc23)[C@H]1COC [Compound 439],6.00 to 7.00
3,C=CC(=O)N1CCC(N(CC)c2nc(OC[C@@]34CCCN3C[C@H](F)C4)nc3cc(-c4ccc(F)c5sc(N)c(C#N)c45)ccc23)[C@H]1COC (stereo partly drawn) [Compound 440],6.00 to 7.00
4,C=CC(=O)N1CCC(N(C)c2nc(OC[C@@H]3CCCN3C)nc3cc(-c4ccc(F)c5sc(N)c(C#N)c45)c(F)cc23)[C@H]1COC (stereo partly drawn) [Compound 441],6.00 to 7.00
5,C=CC(=O)N1CC[C@@H](N(CC)c2nc(OC[C@@]34CCCN3C[C@H](F)C4)nc3c(F)c(-c4ccc(F)c5sc(N)c(C#N)c45)c(C(F)(F)F)cc23)[C@H]1COC [Compound 442],> 7.00
6,C=CC(=O)N1CCC(N(C)c2nc(OC[C@@H]3C[C@@H](F)CN3C)nc3c(F)c(-c4ccc(F)c5sc(N)c(C#N)c45)c(C(F)(F)F)cc23)[C@H]1COC (stereo partly drawn) [Compound 443],> 7.00
7,C=CC(=O)N1CCC(N(C)c2nc(OC[C@@H]3C[C@@H](F)CN3C)nc3cc(-c4ccc(F)c5sc(N)c(C#N)c45)c(C#N)cc23)[C@H]1COC (stereo partly drawn) [Compound 444],> 7.00
8,C=CC(=O)N1CCC(N(CC)c2nc(OC[C@@H]3CC4(CC4)CN3C)nc3c(F)c(-c4ccc(F)c5sc(N)c(C#N)c45)c(C(F)(F)F)cc23)[C@H]1COC (stereo partly drawn) [Compound 445],> 7.00
9,C=CC(=O)N1CCC(N(C)c2nc(OC[C@@H]3CC4(CC4)CN3C)nc3cc(-c4ccc(F)c5sc(N)c(C#N)c45)c(C#N)cc23)[C@H]1COC (stereo partly drawn) [Compound 446],6.00 to 7.00
10,"C=CC(=O)N1C[C@H](C)N(c2nc(OC[C@]3(C)CCCN3C)nc3c(F)c(-c4ccc(F)c5sc(N)c(C#N)c45)c(C(F)(F)F)cc23)C[C@H]1C [Compound 447, 4-(4-((2S,5R)-4-acryloyl-2,5-dimethylpiperazin-1-yl)-2-(((S)-1,2-dimethylpyrrolidin-2-yl)methoxy)-8-fluoro-6-(trifluoromethyl)quinazolin-7-yl)-2-amino-7-fluorobenzo[b]thiophene-3-carbonitrile]",> 7.00
11,C=CC(=O)N1CCC(N(C)c2nc(OC[C@@H]3CC4(CC4)CN3C)nc3c(F)c(-c4ccc(F)c5sc(N)c(C#N)c45)c(Cl)cc23)[C@H]1C (stereo partly drawn) [Compound 448],6.00 to 7.00
12,C=CC(=O)N1CCC(N(C)c2nc(OC[C@@H]3C[C@@H](F)CN3C)nc3c(F)c(-c4ccc(F)c5sc(N)c(C#N)c45)c(Cl)cc23)[C@H]1C (stereo partly drawn) [Compound 449],6.00 to 7.00
13,C=CC(=O)N1CCC(N(C)c2nc(OC[C@@H]3C[C@@H](OC)CN3C)nc3c(F)c(-c4ccc(F)c5sc(N)c(C#N)c45)c(Cl)cc23)[C@H]1C (stereo partly drawn) [Compound 450],> 7.00
14,C=CC(=O)N1CCC(N(C)c2nc(OC[C@@H]3CCCN3CC)nc3c(F)c(-c4ccc(F)c5sc(N)c(C#N)c45)c(C(F)(F)F)cc23)[C@H]1C (stereo partly drawn) [Compound 451],> 7.00
15,C=CC(=O)N1CCC(N(CC)c2nc(OC[C@@H]3C[C@@H](F)CN3C)nc3c(F)c(-c4ccc(F)c5sc(N)c(C#N)c45)c(C(F)(F)F)cc23)[C@H]1COC (stereo partly drawn) [Compound 453],> 7.00
16,C=CC(=O)N1CCC(N(C)c2nc(OC[C@@H]3C[C@@H](OC)CN3C)nc3c(F)c(-c4ccc(F)c5sc(N)c(C#N)c45)c(C(F)(F)F)cc23)[C@H]1COC (stereo partly drawn) [Compound 454],> 7.00
17,C=CC(=O)N1CCC(N(C)c2nc(OC[C@@H]3CCCN3C)nc3cc(-c4ccc(F)c5sc(N)c(C#N)c45)c(C#N)cc23)[C@H]1COC (stereo partly drawn) [Compound 455],6.00 to 7.00
18,C=CC(=O)N1CCC(N(C)c2nc(OC[C@@H]3CC4(CC4)CN3C)nc3c(F)c(-c4ccc(F)c5sc(N)c(C#N)c45)c(C(F)(F)F)cc23)[C@H]1COC (stereo partly drawn) [Compound 456],> 7.00
19,C=CC(=O)N1CCC(N(C)c2nc(OC)nc3c(F)c(-c4ccc(F)c5sc(N)c(C#N)c45)ccc23)[C@H]1C (stereo partly drawn) [Compound 461],< 6.00
20,C=CC(=O)N1CCC(N(C)c2ncnc3c(F)c(-c4ccc(F)c5sc(N)c(C#N)c45)ccc23)[C@H]1C (stereo partly drawn) [Compound 462],< 6.00
21,C=CC(=O)N1CC[C@@H](N(C)c2nc(OCC)nc3c(F)c(-c4ccc(F)c5sc(N)c(C#N)c45)ccc23)[C@H]1C [Compound 463],< 6.00
22,C=CC(=O)N1CCC(N(C)c2nc(OC[C@@H]3CCCN3CC)nc3c(F)c(-c4ccc(F)c5sc(N)c(C#N)c45)c(Cl)cc23)[C@H]1C (stereo partly drawn) [Compound 464],> 7.00
23,C=CC(=O)N1CCC(N(C)c2nc(OC[C@@H]3C[C@@H](OC)CN3C)nc3cc(-c4ccc(F)c5sc(N)c(C#N)c45)c(C#N)cc23)[C@H]1COC (stereo partly drawn) [Compound 465],6.00 to 7.00
24,C=CC(=O)N1CCC(N(C)c2nc(OCCOC)nc3c(F)c(-c4ccc(F)c5sc(N)c(C#N)c45)ccc23)[C@H]1C (stereo partly drawn) [Compound 466],< 6.00
